Experimental findings from patent US8445501B2, “Substituted 7-carboxamido-pyrrolo[3,2-d]pyrimidines” (Takeda GmbH, priority 2008, dated 2013) are described below.

This assay concerns the target T1, human PDE5 (Homo sapiens, UniProt O76074).
T1 construct: from tissue; host or cells: platelets from fresh blood of human donors (lysate, 10,000 g supernatant)
In words: Inhibition of the type 5 phosphodiesterase (PDE5) activity, modified SPA test with platelet lysate. The assay is classed as biochemical. The conditions noted are these: PDE5 from human platelet lysate, 0.5 μM cGMP. As to the method: Method for Measuring Inhibition of the Type 5 Phosphodiesterase (PDE5) Activity:
As a source for human PDE5, platelets are used. For that purpose, 150 ml fresh blood from human donors anticoagulated with citrate [final concentration 0.3% (w/v)] is centrifuged at 200 g for 10 min to obtain the so-called platelet-rich-plasma (PRP) as a supernatant. 1/10 volume of ACD solution (85 mM Na3-citrate, 111 mM D-glucose, 71 mM citric acid, pH 4.4) is added to 9/10 volume of PRP. After centrifugation (1,400 g, 10 min) the cell pellet is resuspended in 3 ml homogenization buffer (NaCl 140 mM, KCl 3.8 mM, EGTA (ethylene glycol tetraacetic acid) 1 mM, MgCl2 1 mM, Tris-HCl 20 mM, beta-mercaptoethanol 1 mM, pH 8.2) plus protease-inhibitor mix giving rise to the final concentrations of 0.5 mM Pefablock (Roche), 10 μM Leupeptin, 5 μM Trypsininhibitor, 2 mM Benzamidin and 10 μM Pepstatin A. The suspension is sonified and thereafter centrifuged for 15 min at 10,000 g. The resulting supernatant (platelet lysate) is used for enzymatic testings.
PDE5A1 activity is inhibited by the compounds of the invention in a modified SPA (scintillation proximity assay) test, supplied by Amersham Biosciences (see procedural instructions “phosphodiesterase [3H]cAMP SPA enzyme assay, code TRKQ 7090”), carried out in 96-well microtitre plates (MTP's). The test volume is 100 μl and contains 20 mM Tris buffer (pH 7.4), 0.1 mg of BSA (bovine serum albumin)/ml, 5 mM Mg^2+, 1 μM motapizone, 10 nM PDE2 inhibitor 2-(3,4-dimethoxybenzyl)-7-[(1R,2R)-2-hydroxy-1-(2-phenylethyl)propyl]-5-methylimidazo[5,1-f][1,2,4]triazin-4(3H)-one, 0.5 μM cGMP (cyclic guanosine monophosphate) (including about 50,000 cpm of [3H]cGMP as a tracer), 1 μl of the respective compound dilution in dimethylsulfoxide (DMSO) and sufficient PDE5-containing platelet lysat (10,000×g supernatant, see above) to ensure that 10-20 wt % of the cGMP is converted under the said experimental conditions. […] After a preincubation of 5 min at 37° C., the reaction is started by adding the substrate (cGMP) and the assay is incubated for a further 15 min; after that, it is stopped by adding SPA beads (50 μl). In accordance with the manufacturer's instructions, the SPA beads had previously been resuspended in water, but are then diluted 1:3 (v/v) in water; the diluted solution also contains 3 mM […] (IBMX) to ensure a complete PDE activity stop. After the beads have been sedimented (>30 min), the MTP's are analyzed in commercially available luminescence detection de-vices. The corresponding IC50 values of the compounds for the inhibition of PDE activity are deter-mined from the concentration-effect curves by means of non-linear regression.
`COCC(=O)N1CC[C@H](NC(=O)c2c[nH]c3c(-c4c(OCC5CC5)ccc5c4OCO5)ncnc23)C1` [Example 21, 4-(5-Cyclopropylmethoxy-benzo[1,3]dioxol-4-yl)-5H-pyrrolo[3,2-d]pyrimidine-7-carboxylic acid [(S)-1-(2-methoxy-ethanoyl)-pyrrolidin-3-yl]amide] showed an IC50 of 1.82 nM. The figure for `CCOC(=O)N1CC[C@H](NC(=O)c2c[nH]c3c(-c4c(OCC5CC5)ccc5c4OCO5)ncnc23)C1` [Example 22, (S)-3-({1-[4-(5-Cyclopropylmethoxy-benzo[1,3]dioxol-4-yl)-5H-pyrrolo[3,2-d]pyrimidin-7-yl]-methanoyl}-amino)-pyrrolidine-1-carboxylic acid ethyl ester] is 0.49 nM; for `O=CN1CCC(CNC(=O)c2c[nH]c3c(-c4c(OCC5CC5)ccc5c4OCO5)ncnc23)CC1` [Example 23, 4-(5-Cyclopropylmethoxy-benzo[1,3]dioxol-4-yl)-5H-pyrrolo[3,2-d]pyrimidine-7-carboxylic acid (1-formyl-piperidin-4-ylmethyl)-amide] it is 0.447 nM; for `CC(=O)N1CCC(CNC(=O)c2c[nH]c3c(-c4c(OCC5CC5)ccc5c4OCO5)ncnc23)CC1` [Example 24, 4-(5-Cyclopropylmethoxy-benzo[1,3]dioxol-4-yl)-5H-pyrrolo[3,2-d]pyrimidine-7-carboxylic acid (1-acetyl-piperidin-4-ylmethyl)-amide] it is 0.302 nM.

In turn, `O=C(NCC1CCN(C(=O)C2CC2)CC1)c1c[nH]c2c(-c3c(OCC4CC4)ccc4c3OCO4)ncnc12` [Example 25, 4-(5-Cyclopropylmethoxy-benzo[1,3]dioxol-4-yl)-5H-pyrrolo[3,2-d]pyrimidine-7-carboxylic acid [1-(1-cyclopropyl-methanoyl)-piperidin-4-ylmethyl]-amide] gave an IC50 of 0.24 nM. The value for `COCC(=O)N1CCC(CNC(=O)c2c[nH]c3c(-c4c(OCC5CC5)ccc5c4OCO5)ncnc23)CC1` [Example 26, 4-(5-Cyclopropylmethoxy-benzo[1,3]dioxol-4-yl)-5H-pyrrolo[3,2-d]pyrimidine-7-carboxylic acid [1-(2-methoxy-ethanoyl)-piperidin-4-ylmethyl]-amide] was 0.457 nM; that for `CCOC(=O)N1CCC(CNC(=O)c2c[nH]c3c(-c4c(OCC5CC5)ccc5c4OCO5)ncnc23)CC1` [Example 27, 4-[({1-[4-(5-Cyclopropylmethoxy-benzo[1,3]dioxol-4-yl)-5H-pyrrolo[3,2-d]pyrimidin-7-yl]-methanoyl}-amino)-methyl]-piperidine-1-carboxylic acid ethyl ester] was 0.372 nM; that for `O=CN1CCCC(CNC(=O)c2c[nH]c3c(-c4c(OCC5CC5)ccc5c4OCO5)ncnc23)C1` (stereo not shown) [Example 28, 4-(5-Cyclopropylmethoxy-benzo[1,3]dioxol-4-yl)-5H-pyrrolo[3,2-d]pyrimidine-7-carboxylic acid (1-formyl-piperidin-3-ylmethyl)-amide] was 0.692 nM. The figure for `CCC(=O)N1CCCC(CNC(=O)c2c[nH]c3c(-c4c(OCC5CC5)ccc5c4OCO5)ncnc23)C1` (stereo not shown) [Example 29, 4-(5-Cyclopropylmethoxy-benzo[1,3]dioxol-4-yl)-5H-pyrrolo[3,2-d]pyrimidine-7-carboxylic acid (1-propionyl-piperidin-3-ylmethyl)-amide] is 0.275 nM. The value for `COCC(=O)N1CCCC(CNC(=O)c2c[nH]c3c(-c4c(OCC5CC5)ccc5c4OCO5)ncnc23)C1` (stereo not shown) [Example 30, 4-(5-Cyclopropylmethoxy-benzo[1,3]dioxol-4-yl)-5H-pyrrolo[3,2-d]pyrimidine-7-carboxylic acid [1-(2-methoxy-acetyl)piperidin-3-ylmethyl]-amide] was 0.479 nM. Compound `CCOC(=O)N1CCCC(CNC(=O)c2c[nH]c3c(-c4c(OCC5CC5)ccc5c4OCO5)ncnc23)C1` (stereo not shown) [Example 31, 3-({[4-(5-Cyclopropylmethoxy-benzo[1,3]dioxol-4-yl)-5H-pyrrolo[3,2-d]pyrimidine-7-carbonyl]-amino}-methyl)-piperidine-1-carboxylic acid ethyl ester] gave an IC50 of 0.224 nM. The figure for `O=CN1CCC(CNC(=O)c2c[nH]c3c(-c4c(OCC5CC5)ccc5c4OCO5)ncnc23)C1` (stereo not shown) [Example 32, 4-(5-Cyclopropylmethoxy-benzo[1,3]dioxol-4-yl)-5H-pyrrolo[3,2-d]pyrimidine-7-carboxylic acid (1-formyl-pyrrolidin-3-ylmethyl)-amide] is 1.1 nM; for `COCC(=O)N1CCC(CNC(=O)c2c[nH]c3c(-c4c(OCC5CC5)ccc5c4OCO5)ncnc23)C1` (stereo not shown) [Example 33, 4-(5-Cyclopropylmethoxy-benzo[1,3]dioxol-4-yl)-5H-pyrrolo[3,2-d]pyrimidine-7-carboxylic acid [1-(2-methoxy-acetyl)-pyrrolidin-3-ylmethyl]-amide] it is 1.51 nM. The figure for `CCOC(=O)N1CCC(CNC(=O)c2c[nH]c3c(-c4c(OCC5CC5)ccc5c4OCO5)ncnc23)C1` (stereo not shown) [Example 34, 3-({[4-(5-Cyclopropylmethoxy-benzo[1,3]dioxol-4-yl)-5H-pyrrolo[3,2-d]pyrimidine-7-carbonyl]-amino}-methyl)-pyrrolidine-1-carboxylic acid ethyl ester] is 0.347 nM; for `O=CN1CCOC(CNC(=O)c2c[nH]c3c(-c4c(OCC5CC5)ccc5c4OCO5)ncnc23)C1` (stereo not shown) [Example 35, 4-(5-Cyclopropylmethoxy-benzo[1,3]dioxol-4-yl)-5H-pyrrolo[3,2-d]pyrimidine-7-carboxylic acid (4-formyl-morpholin-2-ylmethyl)-amide] it is 0.708 nM; for `CCC(=O)N1CCOC(CNC(=O)c2c[nH]c3c(-c4c(OCC5CC5)ccc5c4OCO5)ncnc23)C1` (stereo not shown) [Example 36, 4-(5-Cyclopropylmethoxy-benzo[1,3]dioxol-4-yl)-5H-pyrrolo[3,2-d]pyrimidine-7-carboxylic acid (4-propionyl-morpholin-2-ylmethyl)-amide] it is 0.49 nM. The value for `COCC(=O)N1CCOC(CNC(=O)c2c[nH]c3c(-c4c(OCC5CC5)ccc5c4OCO5)ncnc23)C1` (stereo not shown) [Example 37, 4-(5-Cyclopropylmethoxy-benzo[1,3]dioxol-4-yl)-5H-pyrrolo[3,2-d]pyrimidine-7-carboxylic acid [4-(2-methoxy-acetyl)morpholin-2-ylmethyl]-amide] was 0.912 nM; that for `CCOC(=O)N1CCOC(CNC(=O)c2c[nH]c3c(-c4c(OCC5CC5)ccc5c4OCO5)ncnc23)C1` (stereo not shown) [Example 38, 2-({[4-(5-Cyclopropylmethoxy-benzo[1,3]dioxol-4-yl)-5H-pyrrolo[3,2-d]pyrimidine-7-carbonyl]-amino}-methyl)-morpholine-4-carboxylic acid ethyl ester] was 0.398 nM; that for `CC(=O)N1CC(NC(=O)c2c[nH]c3c(-c4c(OCC5CC5)ccc5c4OCO5)ncnc23)C1` [Example 39, 4-(5-Cyclopropylmethoxy-benzo[1,3]dioxol-4-yl)-5H-pyrrolo[3,2-d]pyrimidine-7-carboxylic acid (1-acetyl-azetidin-3-yl)-amide] was 0.776 nM. The compound `CCC(=O)N1CC(NC(=O)c2c[nH]c3c(-c4c(OCC5CC5)ccc5c4OCO5)ncnc23)C1` [Example 40, 4-(5-Cyclopropylmethoxy-benzo[1,3]dioxol-4-yl)-5H-pyrrolo[3,2-d]pyrimidine-7-carboxylic acid (1-propionyl-azetidin-3-yl)-amide] showed a half-inhibitory concentration (IC50) of 0.427 nM. For the compound `COCC(=O)N1CC(NC(=O)c2c[nH]c3c(-c4c(OCC5CC5)ccc5c4OCO5)ncnc23)C1` [Example 41, 4-(5-Cyclopropylmethoxy-benzo[1,3]dioxol-4-yl)-5H-pyrrolo[3,2-d]pyrimidine-7-carboxylic acid [1-(2-methoxy-ethanoyl)-azetidin-3-yl]amide], half-maximal inhibition (IC50) required 0.891 nM. The value for `CCOC(=O)N1CC(NC(=O)c2c[nH]c3c(-c4c(OCC5CC5)ccc5c4OCO5)ncnc23)C1` [Example 42, 3-({1-[4-(5-Cyclopropylmethoxy-benzo[1,3]dioxol-4-yl)-5H-pyrrolo[3,2-d]pyrimidin-7-yl]-methanoyl}-amino)-azetidine-1-carboxylic acid ethyl ester] was 0.191 nM.

In general, IC50 refers to the midpoint of a concentration-inhibition curve. Lower therefore signals inhibition by little substance.
